Experiment [1] concerns HeLa. Briefly: Inhibition of hemagglutininin-tagged HIV1 Rev protein nuclear export in human HeLa cells assessed as protein localization at 10 uM after 12 hrs by indirect fluorescent antibody technique. In kind it is cell-based. The conditions noted are these: Human immunodeficiency virus 1.
The nature of experiment [2]: Inhibition of hemagglutininin-tagged HIV1 Rev protein nuclear export in human HeLa cells assessed as protein localization after 12 hrs by indirect fluorescent antibody technique. In kind it is cell-based, Human immunodeficiency virus 1.

Calls of active or inactive are those of the source. No cut-off for these calls is given here.

`CC(=O)OCC1=CO[C@@H](OC(=O)CC(C)C)[C@H]2[C@@H]1C[C@H](OC(=O)CC(C)C)[C@]21CO1`: the inhibition entry in experiment [1] was “Active”. Further, the IC50 (as a rule, the point on the concentration scale where inhibition reaches its midpoint) in experiment [2] was 4.4 µM.
As to `CC(=O)OCC1=CO[C@@H](OC(=O)CC(C)C)[C@H]2C1=C[C@H](OC(=O)CC(C)C)[C@]21CO1` [VALTRATE], the IC50 in experiment [2] is 2.5 µM.

These data come from ChEMBL document CHEMBL1156329, “Bioisostere of valtrate, anti-HIV principle by inhibition for nuclear export of Rev” (Bioorg Med Chem Lett, 2010).
